Entries after “also recorded” stand apart in the source; their conditions may differ. Where two headings read alike, the source gives them in different places.
Experiments:
[1] = system: CCRF-CEM cell line; design: method as in PMID 27425639; settings: cited from earlier work
[2] = system: HL-60(TB); assay: NCI-60 screening (SRB); assay type: cell-based, human; settings: HL-60(TB) (Leukemia); 1 dose 10 µM
[3] = system: Leukemia; assay: NCI-60 screening (SRB), subpanel; assay type: cell-based; settings: leukemia cancer cell lines; 1 dose 10 µM
From the text: (§1) The experimental data allow the assessment of the cytostatic effect, indicated by growth inhibition values ranging between 0 and 100, as well as of the cytotoxic effect, indicated by negative values.
(§2) The mean GI50 (molar concentration of the compound that inhibits 50% net cell growth), TGI (molar concentration of the compound leading to the total inhibition), and LC50 (molar concentration of the compound leading to 50% net cell death (presented in negative logarithm)) values across each cell line are shown in Table 2.
(§3) The selectivity index (SI), calculated as the ratio between the full panel MG_MID60 (μM) of compounds 4, 6, and 9 by their respective subpanels MG_MID of the cell line (μM), was introduced as a quantification tool for the selectivity of each compound in terms of anticancer effect (Table 3).
(§4) Primary anticancer assays were performed according to the NCI protocol, as described elsewhere (see e.g., http://dtp.nci.nih.gov accessed on 1 November 2018). The compounds were added at a single concentration, and the cell cultures were incubated for 48 h. The end point determinations were made with a protein-binding dye, sulforhodamine B (SRB). […] The percentage of growth was evaluated spectrophotometrically versus controls not treated with test agents after 48 h exposure and using SRB protein assay to estimate cell viability or growth. Three antitumor activity dose-response parameters were calculated for each cell line. Furthermore, mean graph midpoints (MG_MID) were calculated for each of the parameters, giving an average activity parameter over all cell lines for the tested compound. For the MG_MID calculation, insensitive cell lines were included with the highest concentration tested.

[4] = system: A498; assay: NCI-60 screening (SRB); assay type: cell-based, human; settings: A498 renal cancer; 1 dose 10 µM
[5] = system: NCI-60 cancer cell line panel; assay: NCI-60 screening (SRB), full panel; assay type: cell-based, human; settings: 1 dose 10 µM; for activity at 10 µM: Homo sapiens, 60 cell lines, 48 h
From the text: as §1, §2, §3, §4

[6] = system: A549 non-small lung cancer cells; design: method as in doi:10.1007/BF02974180, PMID 15694457; settings: cited from earlier work
[7] = system: HCT15 colon cancer cells; design: method as in doi:10.1007/BF02974180, PMID 15694457; settings: cited from earlier work
[8] = system: HONE-1 nasopharyngeal cancer cells; design: method as in doi:10.1007/BF02974180, PMID 15694457; settings: cited from earlier work
[9] = system: KB oral epidermoid cancer cells; design: method as in doi:10.1007/BF02974180, PMID 15694457; settings: cited from earlier work
[10] = system: HT29 colorectal cancer cells; design: method as in doi:10.1007/BF02974180, PMID 15694457; settings: cited from earlier work
[11] = system: NIH3T3 noncancer murine fibroblast cells; design: method as in PMID 26044356; settings: NIH3T3 noncancer murine fibroblasts; cited from earlier work
[12] = system: LOX IMVI; assay: NCI-60 screening (SRB); assay type: cell-based, human; settings: LOXIMVI (Melanoma); 1 dose 10 µM
[13] = system: HeLa, MCF-7, HepG2, B16, and A375 cancer cell lines; design: method as in PMID 21496972; settings: MCF-7, HepG2, B16, A375; cited from earlier work
[14] = system: T-lymphoblastic leukemia, breast adenocarcinoma, and cervical cancer cells; settings: cited from earlier work
[15] = system: CAKI-1; assay: NCI-60 screening (SRB); assay type: cell-based, human; settings: CAKI-1 (Renal cancer); 1 dose 10 µM

Molecule | Positive Cytostatic Effect (cell lines with percent growth 0 to 50 / total) [5] | Positive Cytotoxic Effect (cell lines with percent growth <0 / total) [5] | antiproliferative effect in one dose primary screening [5] | activity at 10 µM ([5]; read-out: Mean Growth, %) [%] | activity at 10 µM ([5]; read-out: Range of Growth, %) [%] | other results
C=C(C)C1CCC2(C(=O)N3CCNCC3)CCC3(C)C(CCC4C5(C)CCC(O)C(C)(C)C5CCC43C)C12 (centres unmarked) [Betulinic acid piperazinyl amide] | – | – | – | – | – | IC50 [1]: 0.8 µM
CCN1CCN(C(=O)[C@]23CCC(C)(C)C[C@H]2C2=CC[C@@H]4[C@@]5(C)CCC(=O)C(C)(C)[C@@H]5CC[C@@]4(C)[C@]2(C)CC3)CC1 [Compound 3, N-(3-oxo-olean-12-en-28-oyl)-ethylpiperazine] | 5/59 | 7/59 | moderate growth inhibition activity | 46 | -35.8 to 80.4 | Growth % [2]: −35.82%; growth percentages, range [3]: −35.82 to 37.47%; Growth % [4]: −7.95%
C[C@H]1[C@H](C)CC[C@]2(C(=O)O)CC[C@]3(C)C(=CC[C@@H]4[C@@]5(C)CCC(=O)C(C)(C)[C@@H]5CC[C@]43C)[C@H]12 [Ursonic acid] | – | – | – | – | – | IC50 [6]: 7.7 µM; IC50 [7]: 4.6 µM; IC50 [8]: 5.2 µM; IC50 [9]: 4 µM; IC50 [10]: 6.3 µM; IC50 [11]: > 50 µM
CCN1CCN(C(=O)[C@]23CC[C@@H](C)[C@H](C)[C@H]2C2=CC[C@@H]4[C@@]5(C)C/C(=C/c6ccccn6)C(=O)C(C)(C)[C@@H]5CC[C@@]4(C)[C@]2(C)CC3)CC1 [Compound 8] | 0/59 | 0/59 | do not exhibit antiproliferative effects; also recorded: do not induce any significant antiproliferative activity | 92.4 | 74.8 to 108 | Growth % [12]: 74.76%
3,23-dihydroxy-17-piperazinyl betulinic amide | – | – | – | – | – | IC50 [13]: < 10 µM
C=C(C)C1CCC2(C(=O)N3CCNCC3)CCC3(C)C(CCC4C5(C)CCC(O)C(C)(C)C5CCC43C)C12 (centres unmarked) [piperazine amide of betulinic acid] | – | – | – | – | – | cytotoxicity [14]: 0.7 to 7.8 µM
CCN1CCN(C(=O)[C@]23CCC(C)(C)C[C@H]2C2=CC[C@@H]4[C@@]5(C)C/C(=C/c6ccccn6)C(=O)C(C)(C)[C@@H]5CC[C@@]4(C)[C@]2(C)CC3)CC1 [Compound 5, N-(2-{2-Pyridinylidene}-3-oxoolean-12-en-28-oyl)-ethylpiperazine] | 0/59 | 0/59 | do not exhibit antiproliferative effects; also recorded: do not induce any significant antiproliferative activity | 86.7 | 49.2 to 115 | Growth % [15]: 49.25%

Source: publication PMC8536124 (International Journal of Molecular Sciences, 2021)
